Patent US9751919B2, “Antimicrobial compositions comprising a hyaluronic acid binding peptide and a β-lactam antibiotic” (priority 2012, dated 2017)
“And” between values parts separate entries of the source, which are not always exact repeats. Equal values may be shown once. “Also recorded” adds a separate entry of the source. Marks after values point to notes of the source that are not given here.

Legend:
[1] = test system: CA-MRSA; assay: MIC (CLSI broth dilution), agent alone; format: cell-based, Staphylococcus aureus; details: agent alone, in µg/mL
Method: (§1) VISA (strains 92, 95 and 96), VRSA (strains 105 and 106) and E. coli (strain 69717) isolates were also tested. One MSSA was used as a control. All MICs were assessed using CLSI guidelines. Also assessed was the activity of cefazolin, ceftriazone, meropenem, and a piperacillin/tazobactam combination antibiotic. Minimum inhibitory concentration (MIC) is the lowest concentration of an antimicrobial that will inhibit the visible growth of a microorganism after incubation.
(§2) Antimicrobial Susceptibility Testing: A custom designed panel of antimicrobials was created. […] These agents were obtained as laboratory grade powders from their respective manufacturers. Stock solutions were prepared and dilutions made as described by the Clinical Laboratory Standards Institute (2005 CLSI). Following two subcultures from frozen stock the MICs of the antimicrobial agents for the isolates were determined by the CLSI 2005 approved broth macrodilution method. Briefly, test tubes containing doubling antibiotic dilutions (2 ml per tube) of cation adjusted Mueller-Hinton broth (eg. for Enterobacteriaceae) with or without lysed horse blood (2-5% V/V) [eg. for S. pneumoniae] were inoculated to achieve a final concentration of approximately 5×10^5 CFU/ml and incubated in ambient air for 24 hours prior to reading. Colony counts were performed periodically to confirm inocula. Quality control was performed every two weeks using a variety of ATCC QC organisms including; S. aureus 29213, E. faecalis 29212, E. coli 25922 and P. aeruginosa 27853.
(§3) One MSSA was used as a control. All MICs were assessed using CLSI guidelines.
(§4) One MS SA and ATCC reference strains were used as controls. All MICs were assessed using CLSI guidelines.

[2] = test system: HA-MRSA; assay: MIC (CLSI broth dilution), agent alone; format: cell-based, Staphylococcus aureus; details: agent alone
Method: as §1, §2, §3, §4

[3] = test system: VRSA; assay: MIC (CLSI broth dilution), agent alone; format: cell-based, Staphylococcus aureus; set-up: unit not given beside the values
Method: as §1
(§5) Antimicrobial Susceptibility Testing: A custom designed panel of antimicrobials was created. The panel included: PEP35, penicillin, piperacillin/tazobactam, cefazolin, ceftriaxone, meropenem, clarithromycin, clindamycin, gentamicin, amikacin, vancomycin, ciprofloxacin, levofloxacin, moxifloxacin, linezolid, trimethoprim/sulfamethoxazole and doxycycline. These agents were obtained as laboratory grade powders from their respective manufacturers. Stock solutions were prepared and dilutions made as described by the Clinical Laboratory Standards Institute (2005 CLSI). Following two subcultures from frozen stock the MICs of the antimicrobial agents for the isolates were determined by the CLSI 2005 approved broth macrodilution method. Briefly, test tubes containing doubling antibiotic dilutions (2 ml per tube) of cation adjusted Mueller-Hinton broth (eg. for Enterobacteriaceae) with or without lysed horse blood (2-5% V/V) [eg. for S. pneumoniae] were inoculated to achieve a final concentration of approximately 5×10^5 CFU/ml and incubated in ambient air for 24 hours prior to reading. Colony counts were performed periodically to confirm inocula. Quality control was performed every two weeks using a variety of ATCC QC organisms including; S. aureus 29213, E. faecalis 29212, E. coli 25922 and P. aeruginosa 27853. For all antimicrobials as well as PEP35, CLSI criteria were used.
as §3

[4] = test system: VISA; assay: MIC (CLSI broth dilution), agent alone; format: cell-based, Staphylococcus aureus; set-up: unit: µg/mL
Method: as §1, §5, §3

[5] = test system: E. coli; assay: MIC (CLSI broth dilution), agent alone; format: cell-based, Escherichia coli; details: E. coli 69716; agent alone
Method: as §1, §5, §4

[6] = test system: MRSA, VISA, VRSA and E. coli; assay: MIC, agent alone, panel statement; format: cell-based; details: versus MRSA, VISA, VRSA and E. coli
Method: as §1, §5

[7] = test system: MRSA, VISA, VRSA and E. coli; assay: Checkerboard assay, panel statement; format: cell-based; details: with β-lactams versus MRSA, VISA, VRSA and E. coli
Method: (§6) Checkerboard assays were carried out as described by Bonapace et al.
(§7) Diagnostic Microbiology and Infectious Diseases 2002; 44:363-366. In brief, checkerboard assays were performed in 96 well microtitre trays using an 8-by-8 well configuration. […] 96-well custom designed microtitre plates contained 100 ul/well of cation adjusted Mueller-Hinton broth (eg. for Enterobacteriaceae) with or without lysed horse blood (2-5% V/V) [eg. for S. pneumoniae] and were inoculated to achieve a final concentration of approximately 5×10^5 CFU/ml and incubated in ambient air for 24 hours prior to reading. Colony counts were performed periodically to confirm inocula. Quality control was performed every two weeks using a variety of ATCC QC organisms including; S. pneumoniae 49619, S. aureus 29213, E. faecalis 29212, E. coli 25922 and P. aeruginosa 27853. […] All peptides were assessed for synergy with β-lactams and vancomycin. For all antimicrobials as well as the peptides, CLSI criteria were used.
(§8) The fractional inhibitory concentration index (FIC index) was used to interpret synergy, antagonism or additivity/indifference. FIC index=FIC of drug A+FIC of drug B where:
(§9) The FIC of drug A and drug B was calculated as follows, FIC drug A=MIC of drug A in combination/MIC of drug A alone and FIC of drug B=MIC of drug B in combination/MIC of drug B alone. Synergy was defined as FIC index ≦0.5, additivity/indifference defined as a FIC between 0.5 and 4 and antagonism defined as an FIC index >4.
The fractional inhibitory concentration index (FIC index) was used to interpret synergy, antagonism or additivity/indifference. FIC index=FIC of drug A+FIC of drug B where the FIC of drug A and drug B was calculated as follows, FIC drug A=MIC of drug A in combination/MIC of drug A alone and FIC of drug B=MIC of drug B in combination/MIC of drug B alone. Synergy was defined as FIC index ≦0.5, additivity/indifference defined as an FIC of between 0.5 and 4 and antagonism defined as an FIC index >4.

[8] = test system: E. coli; assay: Checkerboard assay (FIC index); format: cell-based, Escherichia coli; details: antibiotic combined with PEP35
Method: as §6, §7, §8, §9
(§10) The checkerboard assays were carried out as described by Eliopoulos and Moellering (Chapter 9) in Antibiotic in Laboratory Medicine, Lorian Ed. 1996 as well as Bonapace et al. Diagnostic Microbiology and Infectious Diseases 2002; 44:363-366 and Bonapace et al. Diagnostic Microbiology and Infectious Diseases 2000; 38:43-50. In brief, checkerboard assays were performed in 96 well microtitre trays using an 8-by-8 well configuration. […] 96-well custom designed microtitre plates contained 100 ul/well of cation adjusted Mueller-Hinton broth (eg. for Enterobacteriaceae) with or without lysed horse blood (2-5% V/V) [eg. for S. pneumoniae] and were inoculated to achieve a final concentration of approximately 5×10^5 CFU/ml and incubated in ambient air for 24 hours prior to reading. Colony counts were performed periodically to confirm inocula. Quality control was performed every two weeks using a variety of ATCC QC organisms including; S. pneumoniae 49619, S. aureus 29213, E. faecalis 29212, E. coli 25922 and P. aeruginosa 27853. For all antimicrobials as well as PEP35, CLSI criteria was used.
(§11) The FIC of drug A and drug B is calculated as follows, FIC drug A=MIC of drug A in combination/MIC of drug A alone and FIC of drug B=MIC of drug B in combination/MIC of drug B alone. Synergy is defined as FIC index ≦0.5, additivity/indifference FIC >0.5-4 and antagonism FIC index >4.
(§12) Antimicrobials used included PEP35, cefazolin, ceftriaxone, vancomycin, linezolid, tigecycline and daptomycin versus Gram-positive cocci and PEP35, gentamicin, levofloxacin, piperacillin/tazobactam, meropenem and colistin (Polymyxin E) versus Gram-negative bacilli. These agents were obtained as laboratory grade powders from their respective manufacturers. Stock solutions were prepared and dilutions made as described by the Clinical Laboratory Standards Institute (2005 CLSI).
Organisms included Gram-positive cocci (2 strains of each): Methicillin-susceptible Staphylococcus aureus (MSSA), community-associated (CA) and healthcare-associated (HA) methicillin-resistant Staphylococcus aureus (MRSA), vancomycin-intermediate Staphylococcus aureus (VISA), vancomycin-resistant Staphylococcus aureus (VRSA), methicillin-resistant Staphylococcus epidermidis (MRSE), Streptococcus pyogenes, Streptococcus agalactiae, Streptococcus pneumoniae, Enterococcus faecalis, Enterococcus faecium and vancomycin-resistant enterococcus (VRE). […]

[9] = test system: P. aeruginosa; assay: Checkerboard assay (FIC index); format: cell-based, Pseudomonas aeruginosa; details: antibiotic combined with PEP35
Method: as §10, §8, §11, §12
(§13) Organisms included Gram-positive cocci (2 strains of each): Methicillin-susceptible Staphylococcus aureus (MSSA), community-associated (CA) and healthcare-associated (HA) methicillin-resistant Staphylococcus aureus (MRSA), vancomycin-intermediate Staphylococcus aureus (VISA), vancomycin-resistant Staphylococcus aureus (VRSA), methicillin-resistant Staphylococcus epidermidis (MRSE), Streptococcus pyogenes, Streptococcus agalactiae, Streptococcus pneumoniae, Enterococcus faecalis, Enterococcus faecium and vancomycin-resistant enterococcus (VRE). Gram-negative bacilli tested (2 strains of each) included: E. coli, Pseudomonas aeruginosa, Klebsiella pneumoniae, K. oxytoca, Enterobacter cloacae, P. mirabilis and Stenotrophomonas maltophilia. MIC testing, following two subcultures from frozen stock were determined by the CLSI 2005 approved broth microdilution method.

[10] = test system: K. pneumoniae; assay: Checkerboard assay (FIC index); format: cell-based, Klebsiella pneumoniae; details: antibiotic combined with PEP35
Method: as §10, §8, §11, §12, §13

[11] = test system: K. oxytoca; assay: Checkerboard assay (FIC index); format: cell-based, Klebsiella oxytoca; details: antibiotic combined with PEP35
Method: as §10, §8, §11, §12, §13

[12] = test system: E. cloacae; assay: Checkerboard assay (FIC index); format: cell-based, Enterobacter cloacae; details: antibiotic combined with PEP35
Method: as §10, §8, §11, §12, §13

[13] = test system: P. mirabilis; assay: Checkerboard assay (FIC index); format: cell-based, Proteus mirabilis; details: antibiotic combined with PEP35
Method: as §10, §8, §11, §12, §13

[14] = test system: S. maltophilia; assay: Checkerboard assay (FIC index); format: cell-based, Stenotrophomonas maltophilia; details: antibiotic combined with PEP35; S. maltophilia 73062
Method: as §10, §8, §11, §12, §13

[15] = test system: P. mirabilis; assay: MIC, agent alone (broth microdilution); format: cell-based, Proteus mirabilis; details: footnote to Table 12; P. mirabilis 80267 and 81569
From the text: as §13

## GAHWQFNALTVRGGGS (Laboratory designed HA inhibitor peptide) [PEP-52]
[1]; CA-MRSA 69615 (USA400)
  MIC: > 512 and 1024
[1]; CA-MRSA 70857 (USA400)
  MIC: > 512 and 1024
[2]; HA-MRSA 70798 (USA100/800)
  MIC: > 512 and > 1024
[2]; HA-MRSA 77090 (USA100/800), in µg/mL
  MIC: > 512 and 1024
[3]; VRSA 105
  MIC: > 512 and > 1024
[3]; VRSA 106
  MIC: > 512 and > 1024
[4]; VISA 92, in µg/mL
  MIC: > 512 and 1024
[4]; VISA 95, in µg/mL
  MIC: > 512 and 1024
[4]; VISA 96, in µg/mL
  MIC: > 512 and 1024
[5]
  MIC: > 512 and > 1024
[6]
  activity (in words): no activity; also recorded: not active
[7]
  synergistic activity (in words): no synergistic activity

## colistin (Polymyxin E)
[8]; E. coli 69716
  Avg ΣFIC (range): 0.71 (0.31-1.06)
[8]; E. coli 70752
  Avg ΣFIC (range): 0.81 (0.31-1.25)
[9]; P. aeruginosa 70849
  Avg ΣFIC (range): 0.70 (0.28-1.12)
[9]; P. aeruginosa 71841
  Avg ΣFIC (range): 0.89 (0.53-1.25)
[10]; K. pneumoniae 70508
  Avg ΣFIC (range): 0.67 (0.31-1.06)
[10]; K. pneumoniae 77081
  Avg ΣFIC (range): 0.61 (0.18-1.06)
[11]; K. oxytoca 75316
  Avg ΣFIC (range): 0.41 (0.24-0.56) and 0.62 (0.18-1.06) and 0.65 (0.18-1.12)
[11]; K. oxytoca 76874
  Avg ΣFIC (range): 0.83 (0.31-2.03)
[12]; E. cloacae 80194
  Avg ΣFIC (range): 0.70 (0.31-1.12)
[12]; E. cloacae 83128
  Avg ΣFIC (range): 0.77 (0.5-1.06)
[13]; P. mirabilis 80267
  Avg ΣFIC (range): >1**
[13]; P. mirabilis 81569
  Avg ΣFIC (range): >1**
[14]
  Avg ΣFIC (range): 0.88 (0.53-1.25)
[15]
  MIC: COL MIC > 4096
